Measured values: PubChem BioAssay AID1918948 (Molecular Pharmacology Branch, DTP, NCI, 2023)

System: K-562 leukemia growth, % test/control
Test: Anticancer human tumor K-562 cell line growth inhibition;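 further: spheroids exposed to compounds for 7 days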;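 on viability, T/C: 100% = DMSO vehicle wells and lower values mean fewer viable cells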
Settings: spheroids with HUVEC and MSC; for IC50: curve of first compound; for viability, T/C: stronger effect = lower value
In short: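 Complex spheroids of tumor cells with HUVEC and human MSCs, exposed to iadademstat combined with other agents. Each agent tested in half-log steps from near clinical Cmax (else 10 microM top), DMSO ≤0.25%.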

CC(C)CC(NC(=O)CNC(=O)c1cc(Cl)ccc1Cl)B1OC(=O)CC(CC(=O)O)(C(=O)O)O1 (stereo not given) + NC1CCC(NC2CC2c2ccccc2)CC1
IC50 (second compound 0.1 µM): 12.9 nM | IC50 (second compound 0.316 µM): 12.8 nM | IC50 (second compound 1 µM): 13.1 nM | IC50 (second compound 3.16 µM): 13.4 nM | IC50 (second compound 10 µM): 11.7 nM | viability, T/C (second compound 0.1 µM, first compound 0.000316 µM): 102% | viability, T/C (second compound 0.1 µM, first compound 0.001 µM): 96.6% | viability, T/C (second compound 0.1 µM, first compound 0.00316 µM): 100% | viability, T/C (second compound 0.1 µM, first compound 0.01 µM): 59.5% | viability, T/C (second compound 0.1 µM, first compound 0.0316 µM): 15.6% | viability, T/C (second compound 0.1 µM, first compound 0.1 µM): 6.56% | viability, T/C (second compound 0.316 µM, first compound 0.000316 µM): 99.6% | viability, T/C (second compound 0.316 µM, first compound 0.001 µM): 102% | viability, T/C (second compound 0.316 µM, first compound 0.00316 µM): 102% | viability, T/C (second compound 0.316 µM, first compound 0.01 µM): 58.7% | viability, T/C (second compound 0.316 µM, first compound 0.0316 µM): 16.7% | viability, T/C (second compound 0.316 µM, first compound 0.1 µM): 6.02% | viability, T/C (second compound 1 µM, first compound 0.000316 µM): 104% | viability, T/C (second compound 1 µM, first compound 0.001 µM): 102% | viability, T/C (second compound 1 µM, first compound 0.00316 µM): 102% | viability, T/C (second compound 1 µM, first compound 0.01 µM): 61.5% | viability, T/C (second compound 1 µM, first compound 0.0316 µM): 12.8% | viability, T/C (second compound 1 µM, first compound 0.1 µM): 6.77% | viability, T/C (second compound 3.16 µM, first compound 0.000316 µM): 103% | viability, T/C (second compound 3.16 µM, first compound 0.001 µM): 98.1% | viability, T/C (second compound 3.16 µM, first compound 0.00316 µM): 103% | viability, T/C (second compound 3.16 µM, first compound 0.01 µM): 60.6% | viability, T/C (second compound 3.16 µM, first compound 0.0316 µM): 16.9% | viability, T/C (second compound 3.16 µM, first compound 0.1 µM): 5.71% | viability, T/C (second compound 10 µM, first compound 0.000316 µM): 97.9% | viability, T/C (second compound 10 µM, first compound 0.001 µM): 99.5% | viability, T/C (second compound 10 µM, first compound 0.00316 µM): 96.5% | viability, T/C (second compound 10 µM, first compound 0.01 µM): 54.2% | viability, T/C (second compound 10 µM, first compound 0.0316 µM): 16.9% | viability, T/C (second compound 10 µM, first compound 0.1 µM): 4.71%

Nc1ccccc1NC(=O)c1ccc(CNC(=O)OCc2cccnc2)cc1 + NC1CCC(NC2CC2c2ccccc2)CC1
IC50 (second compound 0.1 µM): 274 nM | IC50 (second compound 0.316 µM): 325 nM | IC50 (second compound 1 µM): 280 nM | IC50 (second compound 3.16 µM): 225 nM | IC50 (second compound 10 µM): 75.5 nM | viability, T/C (second compound 0.1 µM, first compound 0.00949 µM): 106% | viability, T/C (second compound 0.1 µM, first compound 0.03 µM): 106% | viability, T/C (second compound 0.1 µM, first compound 0.0949 µM): 103% | viability, T/C (second compound 0.1 µM, first compound 0.3 µM): 45.5% | viability, T/C (second compound 0.1 µM, first compound 0.949 µM): 3.36% | viability, T/C (second compound 0.1 µM, first compound 3 µM): 0.18% | viability, T/C (second compound 0.316 µM, first compound 0.00949 µM): 107% | viability, T/C (second compound 0.316 µM, first compound 0.03 µM): 105% | viability, T/C (second compound 0.316 µM, first compound 0.0949 µM): 103% | viability, T/C (second compound 0.316 µM, first compound 0.3 µM): 53.5% | viability, T/C (second compound 0.316 µM, first compound 0.949 µM): 3.47% | viability, T/C (second compound 0.316 µM, first compound 3 µM): 0.16% | viability, T/C (second compound 1 µM, first compound 0.00949 µM): 106% | viability, T/C (second compound 1 µM, first compound 0.03 µM): 107% | viability, T/C (second compound 1 µM, first compound 0.0949 µM): 100% | viability, T/C (second compound 1 µM, first compound 0.3 µM): 46.9% | viability, T/C (second compound 1 µM, first compound 0.949 µM): 3.81% | viability, T/C (second compound 1 µM, first compound 3 µM): 0.17% | viability, T/C (second compound 3.16 µM, first compound 0.00949 µM): 105% | viability, T/C (second compound 3.16 µM, first compound 0.03 µM): 107% | viability, T/C (second compound 3.16 µM, first compound 0.0949 µM): 93.2% | viability, T/C (second compound 3.16 µM, first compound 0.3 µM): 35.6% | viability, T/C (second compound 3.16 µM, first compound 0.949 µM): 4.43% | viability, T/C (second compound 3.16 µM, first compound 3 µM): 1.18% | viability, T/C (second compound 10 µM, first compound 0.00949 µM): 92.5% | viability, T/C (second compound 10 µM, first compound 0.03 µM): 83.8% | viability, T/C (second compound 10 µM, first compound 0.0949 µM): 39.9% | viability, T/C (second compound 10 µM, first compound 0.3 µM): 14.1% | viability, T/C (second compound 10 µM, first compound 0.949 µM): 2.97% | viability, T/C (second compound 10 µM, first compound 3 µM): 0.24%
